Blank lines part the entries; values can stand above or below the compound they belong to.
How the values were obtained:
Type in all cases: biochemical, Hymenopellis radicata
[1] = test system: T1, ORG (O. radicata α-galactosidase); assay: reducing sugar release (DNS method), Michaelis-Menten plot; conditions: free enzyme, 50 °C
T1 construct: native, purified from commercial dry fruiting bodies; 74 kDa by gel filtration, SDS-PAGE bands 50 and 24 kDa
Description: reducing sugar release (DNS method), Michaelis-Menten plot on ORG (O. radicata α-galactosidase)

[2] = molecular target: T1, ORG (O. radicata α-galactosidase); assay: pNPG hydrolysis, absorbance at […] nm, Dixon plot; conditions: mixed-type inhibition; pNPG 1.5-3 mM as substrate, NaAc-HAc pH 4.6, 40 °C
[3] = test system: T1, ORG (O. radicata α-galactosidase); assay: p-nitrophenol release, absorbance at […] nm, Michaelis-Menten plot; conditions: free enzyme; pNPG 0.5-4 mM, NaAc-HAc pH 4.6, 40 °C

Km ([1]; raffinose 2-40 mM, read-out: Raffinose / Km): 16.5 mM
SMILES: OC[C@H]1O[C@H](OC[C@H]2O[C@H](O[C@]3(CO)O[C@H](CO)[C@@H](O)[C@@H]3O)[C@H](O)[C@@H](O)[C@@H]2O)[C@H](O)[C@@H](O)[C@H]1O [raffinose]

Ki [2]: 5.94 mM
SMILES: OC[C@H]1OC(O)[C@H](O)[C@@H](O)[C@H]1O (some centres unmarked) [galactose]

Ki [2]: 1.86 mM
SMILES: OC[C@H]1O[C@H](OC[C@H]2OC(O)[C@H](O)[C@@H](O)[C@@H]2O)[C@H](O)[C@@H](O)[C@H]1O (some centres unmarked) [melibiose]

Km [3]: 0.58 mM
SMILES: O=[N+]([O-])c1ccc(O[C@H]2O[C@H](CO)[C@H](O)[C@H](O)[C@H]2O)cc1 [4-nitrophenyl-α-D-galactopyranoside]

Km ([1]; stachyose 2-40 mM, read-out: Stachyose / Km): 19 mM
SMILES: OC[C@H]1O[C@H](OC[C@H]2O[C@H](OC[C@H]3O[C@H](O[C@]4(CO)O[C@H](CO)[C@@H](O)[C@@H]4O)[C@H](O)[C@@H](O)[C@@H]3O)[C@H](O)[C@@H](O)[C@H]2O)[C@H](O)[C@@H](O)[C@H]1O [stachyose]

Source: paper PMC9563442, “Purification, Characterization, and Immobilization of a Novel Protease-Resistant α-Galactosidase from Oudemansiella radicata and Its Application in Degradation of Raffinose Family Oligosaccharides from Soymilk” (Foods, 2022)
